Assay results from patent EP3335720A1, “C-DI-GMP BINDING PEPTIDES” (Universität Basel, priority 2016, dated 2018).
Like-named read-outs stand apart in the source and are kept apart here. Peptide text beside a SMILES is read from it. * marks the point of attachment. FITC = O=C1OC2(c3ccc(O)cc3Oc3cc(O)ccc32)c2ccc(NC(=S)*)cc21

What was measured:
[1] = system: P. aeruginosa PAO1 biofilms; format: cell-based
Protocol: The parameter "MBIC50", as used herein, is defined as the peptide concentration leading to 50% biofilm reduction in a standard biofilm assay. Preferably, the medium used for the assay is Mueller-Hinton broth (MHB), since most bacteria can be grown in this medium, and it allows a reliable comparison of MBIC values. MBIC50 values in accordance with the invention are obtained by growing P. aeruginosa at 37°C in presence of different concentrations of peptides, without agitation, for 24 h, followed by staining the adherent biofilm, dissolving the biofilm and measuring the OD600.
The standard biofilm assay (O'Toole G.A., Pratt L.A., Watnick P.I., Newman D.K., Weaver V.B., and Kolter R. 1999. Genetic approaches to study of biofilms. Methods Enzymol. 310: 91-109) was followed with minor modification, i.e. Mueller-Hinton II broth (MHB) (Becton Dickinson #212322) was used instead of lysogenic broth (LB) or minimal medium. MHB is preferred by The European Committee on Antimicrobial Susceptibility Testing (EUCAST) as the medium for MIC determination because most bacteria can be grown in this medium, which allows a more reliable MIC values comparisons. The MBIC50 was defined as the peptide concentration leading to 50% biofilm reduction (de la Fuente-Nunez C., Korolik V., Bains M., Nguyen U., Breidenstein E. B. M., Horsman S., Lewenza S., Burrows L., Hancock, R. E. W. (2012) Inhibition of bacterial biofilm formation and swarming motility by a small synthetic cationic peptide. 56: 2696-2704). MBIC50 values were obtained by growing P. aeruginosa (PAO1) biofilms in 96-well plates (Falcon #353072) in presence of peptides at 37°C without agitation in MHB. After 24 hours, bacterial growth was evaluated by measuring the OD600 in a microtiter plate reader (EL800, BioTek). Afterwards, the plates were rinsed three times with demineralized water to remove non-attached bacteria. The adherent biofilms were stained with 0.1% Crystal Violet and subsequently dissolved in 20% acetic acid. Dissolved biofilms were quantified by measuring the OD600 in a microtiter plate reader.

epithelial HeLa cells = test: Cytotoxicity assays: resazurin reduction assay and LDH release assay; format: cell-based, human; conditions: 24 hours, Figures 11 and 12
Protocol: The cytotoxicity of the peptides was determined with a Resazurin cell viability assay (Sigma #R7017). In a 96-well plate (Corning #3904), monolayers of epithelial HeLa ATCC CCL-2 cells were grown in 100 µl growth medium (DMEM (Sigma #D5796) containing 10% FCS). Afterwards, the medium was removed and either replaced by DMEM/10% FCS containing 2-fold serial diluted peptides with a highest concentration of 256 mg/L. After 24 hours, the medium was removed and replaced by 100 µl fresh growth medium. 1% Triton X-100 (Sigma) was used as positive lysis control. 20 µl of resazurin solution (0.1 mg/ml) was added. After 2 hours, the fluorescence signal was recorded using a microplate reader (Synergy H4 BioTek) with an excitation wavelength of 560 nm and emission wavelength 590 nm.
Cells were prepared and treated with peptides as described for the resazurin reduction assay. 24 hours after peptide treatment, control wells were treated with 1% Triton X-100 (Sigma) as lysis control. LDH release was measured using the LDH Cytotoxicity Detection Kit (Clontech). Absorbance was measured at 490 nm using a microplate reader (Synergy H4 BioTek). The percentage of cell death was calculated as follows: (LDH peptide treated - LDH untreated)/(LDH total lysis - LDH untreated)* 100.

c-di-GMP = test: Binding affinity of peptides to c-di-GMP by isothermal titration calorimetry (ITC); conditions: for Kd: Table 3, peptides with amino acid substitution, 15°C, pH 8.0, read-out: Dissociation constant
Protocol: Binding affinities of peptides to c-di-GMP were measured using isothermal titration calorimetry (ITC) on a VP-ITC MicroCalorimeter (MicroCal, Northampton, MA, USA). Peptides, c-di-GMP and buffer (50 mM Tris-HCl, pH 8.0, 100 mM NaCl) were degassed for 15 min prior to filling into sample cell and syringe. All experiments were carried out at a temperature of 15°C. The data were evaluated using ITC Data Analysis in ORIGIN provided by the manufacturer.

in vitro = in vitro ADME, P. aeruginosa PAO1; conditions: cells or culture medium
Protocol: P. aeruginosa PAO1 lysate, which was used to test peptide stability, was prepared by the following procedure. 500 ml of cells grown overnight at 37°C were harvested by centrifugation at 5000 rpm, 10 min at 4°C. Pellets were resuspended in 60 ml PBS (Gibco) and centrifuged at 5000 rpm, 10 min at 4°C. Pellets were resuspended again in 20 ml PBS and centrifuged at 5000 rpm, 10 min at 4°C. Cells were disrupted using high-pressure cell disrupter (Stansted Fluid Power). Cell lysate was separated from cell debris by centrifugation at 14,000 rpm for 20 min at 4°C. Lysate was diluted 10 fold to yield a protein content of about 1 mg/ml. The lysate was used for all experiments described below.
The stability of peptides was tested against P. aeruginosa PAO1 cell lysate. About 1 to 3 µg of peptides were incubated with 5 µl P. aeruginosa PAO1 cell lysate or PBS (untreated controls) at 37°C. After 2 hours, 6 µl of 2x SDS sample buffer was added to the samples and heated to 95°C for 5 min. Samples were analyzed on 10-20% Mini-PROTEAN tris-tricine gels (BIO-RAD #4563115) according to manufacturer's recommended protocol. Band intensities were quantified using the program ImageJ (Schneider, C. A., Rasband, W. S. and Eliceiri, K. W. 2012. NIH Image to ImageJ: 25 years of image analysis. Nature methods. 9: 671-675).

C[C@H](NC(=O)[C@H](CO)NC(=O)[C@H](CC(N)=O)NC(=O)[C@H](Cc1ccccc1)NC(=O)[C@H](CCCNC(=N)N)NC(=O)[C@H](CCCNC(=N)N)NC(=O)[C@H](CCCNC(=N)N)NC(=O)[C@H](CC(=O)O)NC(=S)Nc1ccc2c(c1)C(=O)OC21c2ccc(O)cc2Oc2cc(O)ccc21)C(=O)N[C@@H](CC(=O)O)C(=O)N[C@@H](Cc1ccc(O)cc1)C(=O)N[C@@H](CCCCN)C(=O)NCC(=O)N1CCC[C@H]1C(=O)N[C@@H](CCCNC(=N)N)C(=O)N[C@@H](CCCNC(=N)N)C(=O)N[C@@H](CCCNC(=N)N)C(=O)N[C@@H](CCCCN)C(=O)N[C@@H](C)C(=O)N[C@@H](CC(=O)O)C(N)=O [compound 43] ({FITC}-DRRRFNSADYKGPRRRKAD-NH2)
MBIC50 ([1]; PAO1, 24 h): 0.25 to 0.5 mg/L

Ac-DRRRFNSADYKGPRRRKAD-NH2 [compound 12]
MBIC50 ([1]; PAO1, 24 h): 0.25 to 0.5 mg/L

C[C@H](NC(=O)[C@H](CO)NC(=O)[C@H](CC(N)=O)NC(=O)[C@H](Cc1ccccc1)NC(=O)[C@H](CCCNC(=N)N)NC(=O)[C@H](CCCNC(=N)N)NC(=O)[C@H](CCCNC(=N)N)NC(=O)[C@H](CC(=O)O)NC(=S)Nc1ccc2c(c1)C(=O)OC21c2ccc(O)cc2Oc2cc(O)ccc21)C(=O)N[C@@H](CC(=O)O)C(=O)N[C@@H](Cc1ccc(O)cc1)C(=O)N[C@@H](CCCCN)C(=O)NCC(=O)N1CCC[C@H]1C(=O)N[C@@H](CCCNC(=N)N)C(=O)N[C@@H](CCCNC(=N)N)C(=O)N[C@@H](CCCNC(=N)N)C(=O)N[C@@H](CCCCN)C(=O)N[C@@H](C)C(=O)N[C@@H](CC(=O)O)C(N)=O [SEQ ID NO: 43, FITC-DRRRFNSADYKGPRRRKAD-NH2] ({FITC}-DRRRFNSADYKGPRRRKAD-NH2)
concentration up to which no toxic effect was shown (epithelial HeLa cells): ≤ 64 µg/mL

Ac-DRRRFNSADYKGPRRRKAA-NH2 [compound 31]
Kd (c-di-GMP): 1750 nM
remaining at 2 h (in vitro): 26%

Ac-DRRRFNSADYKGPRRRAAD-NH2 [compound 29]
Kd (c-di-GMP): 270 nM
remaining at 2 h (in vitro): 9%

Ac-ARRRFNSADYKGPRRRKAD-NH2 [compound 13]
Kd (c-di-GMP): 1530 nM
remaining at 2 h (in vitro): 56%

Ac-DRARFNSADYKGPRRRKAD-NH2 [compound 15]
Kd (c-di-GMP): 1510 nM
remaining at 2 h (in vitro): 11%

Ac-DRRRFNSADYKGPRARKAD-NH2 [compound 27]
Kd (c-di-GMP): 3950 nM
remaining at 2 h (in vitro): 2%

C[C@H](NC(=O)[C@H](CO)NC(=O)[C@H](CC(N)=O)NC(=O)[C@H](Cc1ccccc1)NC(=O)[C@H](CCCNC(=N)N)NC(=O)[C@H](CCCNC(=N)N)NC(=O)[C@H](CCCNC(=N)N)NC(=O)[C@H](CC(=O)O)NC(=O)[C@H](CCCNC(=N)N)NC(=O)[C@H](CCCNC(=N)N)NC(=O)[C@H](CCCNC(=N)N)NC(=O)[C@H](CCCNC(=N)N)NC(=O)[C@H](CCCNC(=N)N)NC(=O)[C@H](CCCNC(=N)N)NC(=O)[C@H](CCCNC(=N)N)NC(=O)[C@H](CCCNC(=N)N)NC(=S)Nc1ccc2c(c1)C(=O)OC21c2ccc(O)cc2Oc2cc(O)ccc21)C(=O)N[C@@H](CC(=O)O)C(=O)N[C@@H](Cc1ccc(O)cc1)C(=O)N[C@@H](CCCCN)C(=O)NCC(=O)N1CCC[C@H]1C(=O)N[C@@H](CCCNC(=N)N)C(=O)N[C@@H](CCCNC(=N)N)C(=O)N[C@@H](CCCNC(=N)N)C(=O)N[C@@H](CCCCN)C(=O)N[C@@H](C)C(=O)N[C@@H](CC(=O)O)C(N)=O [SEQ ID NO: 48] ({FITC}-RRRRRRRRDRRRFNSADYKGPRRRKAD-NH2)
concentration up to which no toxic effect was shown (epithelial HeLa cells): ≤ 32 µg/mL

Ac-DRRRFNSADYKGARRRKAD-NH2 [compound 25]
Kd (c-di-GMP): 350 nM
remaining at 2 h (in vitro): 30%

Ac-DRRRFNSADYKAPRRRKAD-NH2 [compound 24]
Kd (c-di-GMP): 4070 nM
remaining at 2 h (in vitro): 41%

Ac-DRRRFNSLDYKGPRRRKAD-NH2 [compound 20]
Kd (c-di-GMP): 100 nM
remaining at 2 h (in vitro): 27%

Ac-DARRFNSADYKGPRRRKAD-NH2 [compound 14]
Kd (c-di-GMP): 1450 nM
remaining at 2 h (in vitro): 12%

Ac-DRRRFNSAAYKGPRRRKAD-NH2 [compound 21]
Kd (c-di-GMP): 150 nM
remaining at 2 h (in vitro): 2%

Ac-DRRRFASADYKGPRRRKAD-NH2 [compound 18]
Kd (c-di-GMP): 220 nM
remaining at 2 h (in vitro): 1%

C[C@H](NC(=O)[C@H](CO)NC(=O)[C@H](CC(N)=O)NC(=O)[C@H](Cc1ccccc1)NC(=O)[C@H](CCCNC(=N)N)NC(=O)[C@H](CCCNC(=N)N)NC(=O)[C@H](CCCNC(=N)N)NC(=O)CNC(=O)[C@H](CC(=O)O)NC(=O)[C@H](CCCNC(=N)N)NC(=O)[C@H](CCCNC(=N)N)NC(=O)[C@H](CCCNC(=N)N)NC(=O)[C@H](CCC(N)=O)NC(=O)[C@H](CCCNC(=N)N)NC(=O)[C@H](CCCNC(=N)N)NC(=O)[C@H](CCCCN)NC(=O)[C@H](CCCCN)NC(=O)[C@H](CCCNC(=N)N)NC(=O)CNC(=O)[C@H](Cc1ccc(O)cc1)NC(=S)Nc1ccc2c(c1)C(=O)OC21c2ccc(O)cc2Oc2cc(O)ccc21)C(=O)N[C@@H](CC(=O)O)C(=O)N[C@@H](Cc1ccc(O)cc1)C(=O)N[C@@H](CCCCN)C(=O)NCC(=O)N1CCC[C@H]1C(=O)N[C@@H](CCCNC(=N)N)C(=O)N[C@@H](CCCNC(=N)N)C(=O)N[C@@H](CCCNC(=N)N)C(=O)N[C@@H](CCCCN)C(=O)N[C@@H](C)C(=O)N[C@@H](CC(=O)O)C(N)=O [SEQ ID NO: 51] ({FITC}-YGRKKRRQRRRDGRRRFNSADYKGPRRRKAD-NH2)
MBIC50 ([1]; peptide concentration leading to 50% biofilm reduction, MHB, 37°C, 24 hours, without agitation): below 0.25 mg/L
concentration up to which no toxic effect was shown (epithelial HeLa cells): ≤ 64 µg/mL

Ac-DRRRANSADYKGPRRRKAD-NH2 [SEQ ID NO: 17, AC-DRRRANSADYKGPRRRKAD-NH2]
binding affinity to c-di-GMP, in words (c-di-GMP; compared to the core sequence / peptide of SEQ ID NO: 12): does not significantly reduce binding affinity
remaining at 2 h (in vitro): 70%

Ac-DRRRFNAADYKGPRRRKAD-NH2 [compound 19]
Kd (c-di-GMP): 210 nM
remaining at 2 h (in vitro): 30%

Ac-DRRRFNSADYKGPRRRKLD-NH2 [compound 30]
Kd (c-di-GMP): 250 nM
remaining at 2 h (in vitro): 51%

Ac-DRRRFNSADAKGPRRRKAD-NH2 [compound 22]
Kd (c-di-GMP): 4360 nM
remaining at 2 h (in vitro): 39%

Ac-DRRRFNSADYAGPRRRKAD-NH2 [compound 23]
Kd (c-di-GMP): 260 nM
remaining at 2 h (in vitro): 42%
